# Measurements published in patent publication US11957687B2 (REGENERON PHARMACEUTICALS, INC., priority 2019, dated 2024).
# Molecular target: HSD17B13 (Homo sapiens (Human), UniProt Q7Z5P4)
# Assay: HSD17B13 enzymatic inhibition assay (150 nM or 50 nM HSD17B13)
# Assay type: biochemical
# Settings: 50 nM HSD17B13; read-out: Inhibition of 50 nM of HSD17B13 IC50
# Chain of HSD17B13 (Q7Z5P4 other isoform, or with tags, fused parts or gaps): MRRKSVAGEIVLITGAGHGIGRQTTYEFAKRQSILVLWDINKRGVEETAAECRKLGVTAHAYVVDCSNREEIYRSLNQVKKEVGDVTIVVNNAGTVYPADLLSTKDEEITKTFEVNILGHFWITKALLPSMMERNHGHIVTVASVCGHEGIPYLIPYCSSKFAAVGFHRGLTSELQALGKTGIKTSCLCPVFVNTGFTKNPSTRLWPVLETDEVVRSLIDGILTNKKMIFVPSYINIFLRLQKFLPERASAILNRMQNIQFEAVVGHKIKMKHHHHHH
row,Structure (SMILES),IC50 [nM]
1,"COc1ccc2c(c1)CCC(C)C2NC(=O)c1ccc(C(F)(F)F)[nH]c1=O (stereo not drawn) [Compound 292, N-(6-methoxy-2-methyl-1,2,3,4-tetrahydronaphthalen-l-yl)-2-oxo-6-(trifluoromethyl)-1,2-dihydropyridine-3-carboxamide]",220
2,"Cc1ccc2c(c1)Oc1cc(C)ccc1C2NC(=O)c1cc(Br)c(C(F)(F)F)[nH]c1=O [Compound 189, 5-bromo-N-(3,6-dimethyl-9H-xanthen-9-yl)-2-oxo-6-(trifluoromethyl)-1,2-dihydropyridine-3-carboxamide]",70
3,"Cc1ccc2c(c1)Oc1cc(C)ccc1C2NC(=O)c1cc(CO)c(C(F)(F)F)[nH]c1=O [Compound 464, N-(3,6-dimethyl-9H-xanthen-9-yl)-5-(hydroxymethyl)-2-oxo-6-(trifluoromethyl)-1,2-dihydropyridine-3-carboxamide]",10
4,"COc1ccc2c(c1)Sc1cc(N)ccc1C2NC(=O)c1ccc(C(F)F)[nH]c1=O (centres unmarked) [Compound 410, N-(3-amino-6-methoxy-9H-thioxanthen-9-yl)-6-(difluoromethyl)-2-oxo-1,2-dihydropyridine-3-carboxamide]",430
5,"Cc1ccc2c(c1)OCC2NC(=O)c1ccc(C(F)(F)F)[nH]c1=O (centres unmarked) [Compound 395, N-(6-methyl-2,3-dihydrobenzofuran-3-yl)-2-oxo-6-(trifluoromethyl)-1,2-dihydropyridine-3-carboxamide]",9170
6,"CCc1cc(C(F)(F)F)[nH]c(=O)c1C(=O)NC1c2ccc(C)cc2Oc2cccc(C)c21 (centres unmarked) [Compound 204, N-(1,6-dimethyl-9H-xanthen-9-yl)-4-ethyl-2-oxo-6-(trifluoromethyl)-1,2-dihydropyridine-3-carboxamide]",> 10000
7,"C=Cc1cc(C(=O)NC2c3ccc(Cl)cc3Oc3cc(Cl)ccc32)c(=O)[nH]c1C(F)(F)F [Compound 171, N-(3,6-dichloro-9H-xanthen-9-yl)-2-oxo-6-(trifluoromethyl)-5-vinyl-1,2-dihydropyridine-3-carboxamide]",100
8,"Cc1ccc2c(c1)Oc1ccccc1C2NC(=O)c1ccc(C(F)F)[nH]c1=O (centres unmarked) [Compound 279, 6-(difluoromethyl)-N-(3-methyl-9H-xanthen-9-yl)-2-oxo-1,2-dihydropyridine-3-carboxamide]",180
9,"O=C(NC(c1ccccc1)c1ccc(N2CCCCC2)cc1)c1ccc(C(F)(F)F)[nH]c1=O (centres unmarked) [Compound 9A, 2-oxo-N-(phenyl(4-(piperidin-1-yl)phenyl)methyl)-6-(trifluoromethyl)-1,2-dihydropyridine-3-carboxamide]",1200
10,"Cc1ccc2c(c1)Oc1cc(C)ccc1C2NC(=O)c1cc(NC2CCNCC2)c(C(F)(F)F)[nH]c1=O [Compound 433, N-(3,6-dimethyl-9H-xanthen-9-yl)-2-oxo-5-(piperidin-4-ylamino)-6-(trifluoromethyl)-1,2-dihydropyridine-3-carboxamide]",730
11,"COc1ccc2c(c1)Oc1ccccc1C2NC(=O)c1ccc(C(F)(F)F)[nH]c1=O (centres unmarked) [Compound 54, N-(3-methoxy-9H-xanthen-9-yl)-2-oxo-6-(trifluoromethyl)-1,2-dihydropyridine-3-carboxamide]",1480
12,"O=C(NC(c1ccc(Cl)cc1)c1cccnc1)c1ccc(C(F)(F)F)[nH]c1=O (centres unmarked) [Compound 69, N-((4-chlorophenyl)(pyridin-3-yl)methyl)-2-oxo-6-(trifluoromethyl)-1,2-dihydropyridine-3-carboxamide]",2590
13,"O=C(NC(c1ccccc1)c1ccc(C2CCCC2)cc1)c1ccc(C(F)(F)F)[nH]c1=O (centres unmarked) [Compound 38, N-((4-cyclopentylphenyl)(phenyl)methyl)-2-oxo-6-(trifluoromethyl)-1,2-dihydropyridine-3-carboxamide]",450
14,"Cc1ccc2c(c1)Oc1cccc(C)c1C2NC(=O)c1cc(-c2ccccc2)c(C(F)(F)F)[nH]c1=O (centres unmarked) [Compound 175, N-(1,6-dimethyl-9H-xanthen-9-yl)-2-oxo-5-phenyl-6-(trifluoromethyl)-1,2-dihydropyridine-3-carboxamide]",280
